“And” between values parts separate entries of the source, which are not always exact repeats. Equal entries are not always repeated.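 Growth conditions: 96-well plates. Treatment: test compound, 48 hours, 5 concentrations. Analysis: linear interpolation between bracketing concentrations; unreached endpoints set to highest concentration. Abbreviation: GI50, concentration required for 50% inhibition of growth. TGI is the concentration that stops growth completely.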
How the values were obtained:
Assay in all cases: NCI-60 cell line screen, 48 h
HOP-92 NSCLC = tested on: HOP-92 NSCLC
TK-10 renal = tested on: TK-10 renal
SW-620 colon = tested on: SW-620 colon
CAKI-1 renal = tested on: CAKI-1 renal
UACC-257 melanoma = tested on: UACC-257 melanoma
HS 578T breast = tested on: HS 578T breast
HOP-62 NSCLC = tested on: HOP-62 NSCLC
CCRF-CEM leukemia = tested on: CCRF-CEM leukemia
KM12 colon = tested on: KM12 colon
EKVX NSCLC = tested on: EKVX NSCLC

Structure (SMILES)	TGI (HOP-92 NSCLC)	TGI (TK-10 renal) [µM]	TGI (SW-620 colon) [µM]	TGI (CAKI-1 renal)	TGI (UACC-257 melanoma)	TGI (HS 578T breast) [µM]	TGI (HOP-62 NSCLC)	TGI (CCRF-CEM leukemia)	TGI (KM12 colon)	TGI (EKVX NSCLC)	GI50 (HOP-92 NSCLC) [µM]	GI50 (CAKI-1 renal) [µM]	GI50 (UACC-257 melanoma) [µM]	GI50 (HOP-62 NSCLC) [µM]	GI50 (CCRF-CEM leukemia) [µM]	GI50 (KM12 colon) [µM]	GI50 (EKVX NSCLC) [µM]	GI50 (TK-10 renal) [µM]	GI50 (SW-620 colon) [µM]	GI50 (HS 578T breast) [µM]
CCOC(=O)NC(Nc1ccc(F)cc1F)(C(F)(F)F)C(F)(F)F	> 100 µM	> 100	> 100	> 100 µM	> 100 µM	> 100	> 100 µM	> 100 µM	> 100 µM	> 100 µM										
COc1ccc2[nH]c3ccc4cc[n+](CCN5CCC(C6CCN(CC[n+]7ccc8ccc9[nH]c%10ccc(OC)cc%10c9c8c7)CC6)CC5)cc4c3c2c1	28.1 µM and 5.47 µM	27.2	> 36.9	50 µM and 68.1 µM	50 µM and > 100 µM	50	50 µM and > 100 µM	25.4 µM and 16.8 µM	50 µM and > 92.7 µM	> 50 µM and 63.1 µM	27.7	10.9	12.1	34.4	0.566	0.631	3.19			
Nc1cc(OCC2CCCCC2)nc(N)n1	> 100 µM	> 100	> 100	> 100 µM	> 100 µM	> 100	> 100 µM	> 100 µM	> 100 µM	> 100 µM										
N=c1oc2cc(O)ccc2cc1C(=O)Nc1ccccn1	> 100 µM	> 100	> 100	> 100 µM	> 100 µM	> 100	> 100 µM	94.2 µM	> 100 µM	> 100 µM										
O=C(Nc1ccccc1C(=O)NCc1ccccc1)/C(=C/c1ccccc1O)NC(=O)c1ccccc1	> 100 µM	> 100	> 100	> 100 µM	> 100 µM	> 100	> 100 µM	> 100 µM	> 100 µM	> 100 µM										
CC(C)(C)OC(=O)NC(CSCc1ccc(C(=O)c2ccccc2)cc1)C(=O)N1CCN(CCCCN2c3ccccc3Sc3cc(N=[N+]=[N-])ccc32)CC1 (centres undefined)	> 100 µM	> 100	> 100	> 100 µM	> 100 µM	> 100	> 100 µM	> 100 µM	> 100 µM	> 100 µM										
COc1ccc2c(c1)/C(=C\c1c(Cl)nc3n1CCS3)C(=O)N2	> 100 µM	28.1	> 100	> 100 µM	25.8 µM	44.1	> 100 µM	79.2 µM	23.2 µM	77 µM										
Cc1cn(S(=O)(=O)c2ccccc2)c2c(OCc3ccccc3)cc([N+](=O)[O-])cc12	> 100 µM	> 100	> 100	> 100 µM	> 100 µM	> 100		> 100 µM	> 100 µM	> 100 µM										
Cc1cc(=O)[nH]c2cc(NC(=O)C(C)NC(=O)C(C)NC(=O)C(C)NC(=O)OC(C)(C)C)ccc12 (centres undefined)	> 15 µM	> 15	> 15	> 15 µM	> 15 µM	> 15	> 15 µM	> 15 µM	> 15 µM	> 15 µM										
Cc1cccc2c(=O)c3cccc([C@H](C)C(=O)O)c3oc12	> 100 µM	> 100	> 100	> 100 µM	> 100 µM	> 100	> 100 µM	> 100 µM	> 100 µM	> 100 µM										
O=c1c(NCc2ccccc2)c(C2(c3ccccc3F)SCCCS2)c1=O	> 100 µM	> 100	> 100	> 100 µM	> 100 µM	> 100	> 100 µM	> 100 µM	> 100 µM	> 100 µM										
CC1=NNC(=O)C1C1(C(=O)O)CC(c2c[nH]c3ccccc23)=NC(=S)N1 (centres undefined)	> 100 µM	> 100	> 100	> 100 µM	> 100 µM	47.7	> 100 µM	64.1 µM	36.9 µM	> 100 µM										
O=C(COc1cc(=O)oc2ccccc12)c1ccccc1	33 µM	> 100	> 100	32.5 µM	> 100 µM	73.7	> 100 µM	> 100 µM	> 100 µM	> 100 µM										
CC(=O)C1=C(C)N(c2ccccc2)C2(O)C3=C(C(=O)c4ccccc4C3=O)C(O)=CC12Cl (centres undefined)	30 µM	33.1	> 100	27.2 µM	19.3 µM	15.2	80.1 µM	62.5 µM	24.6 µM	> 100 µM										
CCOC(CBr)OC1C(=O)OCC1(C)C (centres undefined)	> 100 µM	> 100	> 100	> 100 µM	> 100 µM	> 100	> 100 µM	> 100 µM	> 100 µM	> 100 µM										
CCOC(=O)/C(C(N)=O)=C(\O)C(=O)/C=C(\O)c1ccc(Cl)cc1	53.9 µM	26	50.1	64 µM	32.2 µM	> 100	60.7 µM	24.4 µM	36.9 µM	58.3 µM										
COc1c(C(=O)/C(=N/Nc2ccc(C(=O)O)cc2)C(C)=O)c(O)cc2occc12	> 100 µM	> 100	> 100	> 100 µM	> 100 µM	> 100	> 100 µM	> 100 µM	> 100 µM	> 100 µM										

Structure (SMILES)	TGI (HOP-92 NSCLC)	TGI (TK-10 renal) [µM]	TGI (SW-620 colon) [µM]	TGI (CAKI-1 renal)	TGI (UACC-257 melanoma)	TGI (HS 578T breast) [µM]	TGI (HOP-62 NSCLC)	TGI (CCRF-CEM leukemia)	TGI (KM12 colon)	TGI (EKVX NSCLC)	GI50 (HOP-92 NSCLC) [µM]	GI50 (CAKI-1 renal) [µM]	GI50 (UACC-257 melanoma) [µM]	GI50 (HOP-62 NSCLC) [µM]	GI50 (CCRF-CEM leukemia) [µM]	GI50 (KM12 colon) [µM]	GI50 (EKVX NSCLC) [µM]	GI50 (TK-10 renal) [µM]	GI50 (SW-620 colon) [µM]	GI50 (HS 578T breast) [µM]
Nc1cc(C2CCCc3c2[nH]c2ccccc32)ccc1O (centres undefined)	> 100 µM	> 100	> 100	84.5 µM	> 100 µM	> 100	> 100 µM	> 100 µM	> 100 µM	> 100 µM										
Cc1ccc(C(=O)Nc2ccc(S(=O)(=O)O)c3cc(S(=O)(=O)O)cc(S(=O)(=O)O)c23)cc1NC(=O)c1cccc(NC(=O)Nc2cccc(C(=O)Nc3cc(C(=O)Nc4ccc(S(=O)(=O)O)c5cc(S(=O)(=O)O)cc(S(=O)(=O)O)c45)ccc3C)c2)c1	> 100 µM	> 89.7	> 100	> 100 µM	> 100 µM	> 100	> 100 µM	> 100 µM	> 100 µM	> 100 µM										
O=C1c2c(c3c4cc(F)ccc4oc3c3[nH]c4ccccc4c23)C(=O)N1O	5.15 µM	53.4	> 100	9.35 µM	6.68 µM	9.59	17.3 µM	> 100 µM	> 100 µM	65.8 µM	1.44	2.09	2.31	1.33	0.239	3.33	6.85	12	1.24	2.53
COc1cc2ncnc(NS(=O)(=O)c3cc4ccccc4s3)c2cc1OC	> 100 µM	> 100	> 100	> 100 µM	> 100 µM	> 100	> 100 µM	> 100 µM	> 100 µM	> 100 µM										
COc1ccc(N2C(=O)C3ON(Cc4ccc(CC(N)=O)cc4)C(c4c5ccccc5c(C)c5ccccc45)C3C2=O)cc1 (centres undefined)	> 100 µM	47.8	> 100	> 100 µM	46.5 µM	> 100	> 100 µM	> 100 µM	> 100 µM	54.9 µM										
CCN(CC)Cc1cc(N=Nc2c(O)ccc3c(N=Nc4ccc(O)c(CN(CC)CC)c4)c(O)ccc23)ccc1O	22.8 µM	18.8	15.2	8.25 µM	16.5 µM	> 38.7	15.2 µM	> 53.3 µM	> 21.9 µM	21.2 µM										
Cc1nc2c(Cl)cc(Cl)cc2c2c1CCO2	> 100 µM	> 100	> 100	> 100 µM	> 100 µM	> 100		> 100 µM	> 100 µM	> 100 µM										
Cc1cc2ncn(CC(=O)O)c2cc1C	> 100 µM	> 100	> 100	> 100 µM	> 100 µM	> 100	> 100 µM	> 100 µM	> 100 µM	> 100 µM										
O=C(CC(C(=O)c1ccsc1)c1cccs1)c1ccccc1 (centres undefined)	> 100 µM	> 100	> 100	> 100 µM	> 100 µM	> 100	> 100 µM	> 100 µM	> 100 µM	> 100 µM										
O=C(CCCc1cccc2[nH]c3c(c12)CN(Cc1ccccc1)CC3)c1ccc(F)cc1	> 100 µM	> 100	> 100	> 100 µM	> 100 µM	> 100	> 52.6 µM	> 100 µM	> 100 µM	> 100 µM										
COc1ccc(SCc2cc(OC)ccc2OC)cc1	94.3 µM	> 100	> 100	> 100 µM	> 100 µM	97.7	> 100 µM	> 96.4 µM	> 100 µM	> 100 µM										
CCO/N=C\c1ccc2oc(-c3ccccc3)cc(=O)c2c1	31.5 µM	34	> 100	41.7 µM	66 µM	42.8	28.7 µM	26 µM	11.1 µM	36.8 µM										
CC1=C(C)C(=O)OC(C(C)(O)C2(O)CC3OC34C3CC(O)C56OC5C=CC(=O)C6(C)C3CCC42C)C1 (centres undefined)	12 µM	7.43		14.4 µM	4.7 µM	16.3	35.4 µM	> 22.2 µM	7.54 µM	10.4 µM										
C/C(Cc1ccc2c(c1)OCO2)=N\N=c1\sc2ccccc2n1C	> 100 µM	> 100	> 100	> 100 µM	> 100 µM	> 100	> 100 µM	> 100 µM	> 100 µM	> 100 µM										
O=[N+]([O-])c1ccc2c(c1)nc1n2C(c2c(F)cccc2F)SC1 (centres undefined)	> 100 µM	> 100	> 100	> 100 µM	> 100 µM	> 100	> 100 µM	> 100 µM	> 100 µM	> 100 µM										
N=C1OC(CN2CCN(c3ccccc3)CC2)CN1C(=O)Nc1ccccc1 (centres undefined)	> 100 µM	> 100	> 100	> 100 µM	> 100 µM	> 100	> 100 µM	> 100 µM	> 100 µM	> 100 µM										
